One may read the IC50 as the concentration at which inhibition is half-maximal. The term EC50 denotes the concentration needed to bring the measured effect to its halfway point.

Data on 21 compounds can be found in patent US20250163038A1, “CBL-B MODULATORS AND USES THEREOF” (Nimbus Clio, Inc., priority 2021, published 2025).

The target in experiment [1] is Recombinant human Cbl-b (aa 36-427) (Homo sapiens, UniProt Q13191). The experiment can be described thus: Cbl-b Biochemical Assay (TR-FRET). The conditions noted are these: read-out: TR-FRET hCbl-b IC50. A general note: TR-FRET usually uses a lanthanide donor and a delayed reading to cut background.
Experiment [2] concerns Jurkat (clone E6-1) cells with NFAT luciferase reporter. The experiment can be described thus: Jurkat reporter assay (NFAT Luciferase). Format: cell-based. The note with it: Homo sapiens; Jurkat NFAT luciferase reporter cells, anti-CD3 stimulation, 6 hr; read-out: Jurkat NFAT EC50. (In general: Reporter assays use an easily measured gene product as a stand-in for the process of interest.)

Experiment [3] addresses T1, Recombinant human c-Cbl (aa 47-435) (Homo sapiens, UniProt P22681).
T1 sequence (P22681 47-435): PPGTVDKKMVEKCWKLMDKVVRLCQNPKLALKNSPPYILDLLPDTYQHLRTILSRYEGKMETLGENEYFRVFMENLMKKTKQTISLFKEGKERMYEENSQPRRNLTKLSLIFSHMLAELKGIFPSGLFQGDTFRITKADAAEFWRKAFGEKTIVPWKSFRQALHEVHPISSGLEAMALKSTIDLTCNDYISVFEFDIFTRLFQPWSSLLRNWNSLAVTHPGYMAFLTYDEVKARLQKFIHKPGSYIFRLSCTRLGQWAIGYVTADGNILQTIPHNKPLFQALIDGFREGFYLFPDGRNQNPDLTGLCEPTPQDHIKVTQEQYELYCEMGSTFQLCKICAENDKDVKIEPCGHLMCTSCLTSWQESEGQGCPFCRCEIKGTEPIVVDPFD
The experiment can be described thus: c-Cbl Biochemical Assay (TR-FRET). The conditions noted are these: hc-Cbl Biochemical Assay (TR-FRET); read-out: TR-FRET hcCbl IC50.

SMILES strings stand for the structures.

Chain of Recombinant human Cbl-b (aa 36-427) (Q13191 36-427): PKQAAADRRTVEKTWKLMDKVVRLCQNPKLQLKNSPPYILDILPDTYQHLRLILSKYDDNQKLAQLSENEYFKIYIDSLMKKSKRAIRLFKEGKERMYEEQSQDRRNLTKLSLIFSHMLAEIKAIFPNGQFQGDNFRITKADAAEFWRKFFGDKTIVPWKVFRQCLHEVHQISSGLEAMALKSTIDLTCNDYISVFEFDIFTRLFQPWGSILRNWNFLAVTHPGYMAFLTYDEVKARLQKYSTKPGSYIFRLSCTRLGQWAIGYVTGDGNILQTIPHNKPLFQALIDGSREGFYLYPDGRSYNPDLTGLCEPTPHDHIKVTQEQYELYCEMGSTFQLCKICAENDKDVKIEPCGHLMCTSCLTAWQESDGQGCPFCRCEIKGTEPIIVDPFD

For `Cn1cnnc1-c1cc(F)ccc1-c1cccc(-c2nc3cc(CNCCC(F)F)cc(C(F)(F)F)c3o2)c1` [EW-2, 3,3-Difluoro-N-((2-(4′-fluoro-2′-(4-methyl-4H-1,2,4-triazol-3-yl)-[1,1′-biphenyl]-3-yl)-7-(trifluoromethyl)benzo[d]oxazol-5-yl)methyl)propan-1-amine], the IC50 in experiment [1] and in experiment [3] was below 0.2 µM throughout. Moreover, the EC50 in experiment [2] is below 0.2 µM.

In the case of `Cn1cnnc1-c1cc(F)ccc1-c1cccc(-c2nc3cc(CO)cc(C(F)F)c3o2)c1` [EX-6, (7-(Difluoromethyl)-2-(4′-fluoro-2′-(4-methyl-4H-1,2,4-triazol-3-yl)-[1,1′-biphenyl]-3-yl)benzo[d]oxazol-5-yl)methanol], the IC50 in experiment [1] and in experiment [3] was 0.2 to 1 µM throughout. The EC50 in experiment [2] was 1 to 10 µM.

Take `Cn1cnnc1-c1cc(F)ccc1-c1cccc(-c2nc3cc(CN[C@@H]4CCC[C@@H]4O)cc(C(F)F)c3o2)c1` [EY-2, (1S,2R)-2-(((7-(Difluoromethyl)-2-(4′-fluoro-2′-(4-methyl-4H-1,2,4-triazol-3-yl)-[1,1′-biphenyl]-3-yl)benzo[d]oxazol-5-yl)methyl)amino)cyclopentan-1-ol]: the IC50 in experiment [1] and in experiment [3] was below 0.2 µM in each case. Besides, the EC50 in experiment [2] is below 0.2 µM.

For the compound `COCCN(Cc1cc(C(F)(F)F)c2oc(-c3cccc(-c4ccc(F)cc4-c4nncn4C)c3)nc2c1)CC(C)(C)O` [EZ-3], the IC50 in experiment [1] is below 0.2 µM; in experiment [3] it was 0.2 to 1 µM. Besides, the EC50 in experiment [2] lay within 1 to 10 µM.

Turning to `Cn1cnnc1-c1ccccc1-c1cccc(-c2nc3cc(CN[C@@H]4CCC[C@H]4O)cc(C(F)(F)F)c3o2)c1` [Example N-1, (1R,2R)-2-(((2-(2′-(4-Methyl-4H-1,2,4-triazol-3-yl)-[1,1′-biphenyl]-3-yl)-7-(trifluoromethyl)benzo[d]oxazol-5-yl)methyl)amino)cyclopentan-1-ol], the IC50 was below 0.2 µM in experiment [1] and 1 to 10 µM in experiment [3]. Besides, the EC50 in experiment [2] lay in the range of 1 to 10 µM.

Take `Cn1cnnc1-c1ccccc1-c1cccc(-c2nc3cc(CN[C@H]4CCC[C@@H]4O)cc(C(F)(F)F)c3o2)c1` [Example P-6, (1S,2S)-2-(((2-(2′-(4-Methyl-4H-1,2,4-triazol-3-yl)-[1,1′-biphenyl]-3-yl)-7-(trifluoromethyl)benzo[d]oxazol-5-yl)methyl)amino)cyclopentan-1-ol]: the IC50 in experiment [1] was below 0.2 µM; in experiment [3] it was 1 to 10 µM. Further, in experiment [2], the EC50 is 1 to 10 µM.

Take `C[C@H]1CCCN(Cc2cc(C(F)(F)F)c3oc(-c4cccc(-c5ccccc5-c5nncn5C)c4)nc3c2)C1` [Example Q-3, (S)-2-(2′-(4-Methyl-4H-1,2,4-triazol-3-yl)-[1,1′-biphenyl]-3-yl)-5-((3-methylpiperidin-1-yl)methyl)-7-(trifluoromethyl)benzo[d]oxazole]: the figures for the IC50 in experiment [1] and in experiment [3] were 0.2 to 1 µM and 1 to 10 µM, respectively. For the same compound, the EC50 in experiment [2] was in the range of 1 to 10 µM.

With `Cn1cnnc1-c1ccccc1-c1cccc(-c2nc3cc(CN[C@@H]4CCC[C@@H]4O)cc(C(F)(F)F)c3o2)c1` [Example R-3, (1S,2R)-2-(((2-(2′-(4-Methyl-4H-1,2,4-triazol-3-yl)-[1,1′-biphenyl]-3-yl)-7-(trifluoromethyl)benzo[d]oxazol-5-yl)methyl)amino)cyclopentan-1-ol], the IC50 in experiment [1] was below 0.2 µM; in experiment [3], 1 to 10 µM. Also, the EC50 in experiment [2] lay in the range of 0.2 to 1 µM.

Consider `Cn1cnnc1-c1cc(F)ccc1-c1cccc(-c2nc3cc(CN[C@@H]4CCC[C@@H]4O)cc(C(F)(F)F)c3o2)c1` [Example T-5, (1S,2R)-2-(((2-(4′-Fluoro-2′-(4-methyl-4H-1,2,4-triazol-3-yl)-[1,1′-biphenyl]-3-yl)-7-(trifluoromethyl)benzo[d]oxazol-5-yl)methyl)amino)cyclopentan-1-ol], for which the IC50 in experiment [1] is below 0.2 µM; in experiment [3], 1 to 10 µM. Also, in experiment [2], the EC50 lay in the range of 0.2 to 1 µM.

Take `C[C@H]1CCCN(Cc2cc(C(F)(F)F)c3oc(-c4cccc(-c5ccc(F)cc5-c5nncn5C)c4)nc3c2)C1` [Example U-1, (S)-2-(4′-Fluoro-2′-(4-methyl-4H-1,2,4-triazol-3-yl)-[1,1′-biphenyl]-3-yl)-5-((3-methylpiperidin-1-yl)methyl)-7-(trifluoromethyl)benzo[d]oxazole]: the values for the IC50 in experiment [1] and in experiment [3] were below 0.2 µM and 1 to 10 µM, respectively. In experiment [2], the EC50 fell in the range of 0.2 to 1 µM.

Turning to `C[C@@H]1CN(Cc2cc(C(F)(F)F)c3oc(-c4cccc(-c5ccc(F)cc5-c5nncn5C)c4)nc3c2)CCO1` [Example V-1, (R)-2-(4′-Fluoro-2′-(4-methyl-4H-1,2,4-triazol-3-yl)-[1,1′-biphenyl]-3-yl)-5-((2-methylmorpholino)methyl)-7-(trifluoromethyl)benzo[d]oxazole], the IC50 is below 0.2 µM in experiment [1] and 1 to 10 µM in experiment [3]. The EC50 in experiment [2] was 1 to 10 µM.

For `Cn1cnnc1-c1cc(F)ccc1-c1cccc(-c2nc3cc(CN[C@@H]4CCC[C@H]4O)cc(C(F)(F)F)c3o2)c1` [Example W-2, (1R,2R)-2-(((2-(4′-Fluoro-2′-(4-methyl-4H-1,2,4-triazol-3-yl)-[1,1′-biphenyl]-3-yl)-7-(trifluoromethyl)benzo[d]oxazol-5-yl)methyl)amino)cyclopentan-1-ol], the figures for the IC50 in experiment [1] and in experiment [3] were below 0.2 µM and 1 to 10 µM, respectively. Further, the EC50 in experiment [2] lay within 0.2 to 1 µM.

In the case of `Cn1cnnc1-c1cc(F)ccc1-c1cccc(-c2nc3cc(CO)cc(C(F)(F)F)c3o2)c1` [Example X-2, (2-(4′-Fluoro-2′-(4-methyl-4H-1,2,4-triazol-3-yl)-[1,1′-biphenyl]-3-yl)-7-(trifluoromethyl)benzo[d]oxazol-5-yl)methanol], the IC50 in experiment [1] was below 0.2 µM; in experiment [3] it was 1 to 10 µM. Moreover, the EC50 in experiment [2] was in the range of 1 to 10 µM.

In the case of `Cn1cnnc1-c1cc(F)ccc1-c1cccc(-c2nc3cc(CNCC4(O)CCC4)cc(C(F)(F)F)c3o2)c1` [Example Y-3, 1-((((2-(4′-Fluoro-2′-(4-methyl-4H-1,2,4-triazol-3-yl)-[1,1′-biphenyl]-3-yl)-7-(trifluoromethyl)benzo[d]oxazol-5-yl)methyl)amino)methyl)cyclobutan-1-ol], the figures for the IC50 in experiment [1] and in experiment [3] were below 0.2 µM and 1 to 10 µM, respectively. Also, the EC50 in experiment [2] lay within 0.2 to 1 µM.

On to `Cn1cnnc1-c1cc(F)ccc1-c1cccc(-c2nc3cc(CNC4(CO)COC4)cc(C(F)(F)F)c3o2)c1` [Example Z-2, (3-(((2-(4′-Fluoro-2′-(4-methyl-4H-1,2,4-triazol-3-yl)-[1,1′-biphenyl]-3-yl)-7-(trifluoromethyl)benzo[d]oxazol-5-yl)methyl)amino)oxetan-3-yl)methanol], for which the figures for the IC50 in experiment [1] and in experiment [3] were below 0.2 µM and 1 to 10 µM, respectively. Moreover, the EC50 in experiment [2] fell in the range of 1 to 10 µM.

As for `COc1cc(CNCC2CCC2)cc2nc(-c3cccc(-c4ccc(F)cc4-c4nncn4C)c3)oc12` [FA-1, 1-Cyclobutyl-N-((2-(4′-fluoro-2′-(4-methyl-4H-1,2,4-triazol-3-yl)-[1,1′-biphenyl]-3-yl)-7-methoxybenzo[d]oxazol-5-yl)methyl)methanamine], the IC50 in experiment [1] and in experiment [3] was below 0.2 µM each time. Besides, the EC50 in experiment [2] was below 0.2 µM.

Consider `Cn1cnnc1-c1cc(F)ccc1-c1cccc(-c2nc3cc(CNCC4CC4)cc(C(F)(F)F)c3o2)c1` [FB-2, 1-Cyclopropyl-N-((2-(4′-fluoro-2′-(4-methyl-4H-1,2,4-triazol-3-yl)-[1,1′-biphenyl]-3-yl)-7-(trifluoromethyl)benzo[d]oxazol-5-yl)methyl)methanamine], for which the concentration for half-maximal inhibition (IC50) in experiment [1] and in experiment [3] was below 0.2 µM throughout. Moreover, the EC50 in experiment [2] is below 0.2 µM.

On to `COCC1(CNCc2cc(C(F)(F)F)c3oc(-c4cccc(-c5ccc(F)cc5-c5nncn5C)c4)nc3c2)CCCC1` [FC-2, 1-(2-(4′-Fluoro-2′-(4-methyl-4H-1,2,4-triazol-3-yl)-[1,1′-biphenyl]-3-yl)-7-(trifluoromethyl)benzo[d]oxazol-5-yl)-N-((1-(methoxymethyl)cyclopentyl)methyl)methanamine], for which the IC50 in experiment [1] and in experiment [3] was below 0.2 µM in each case. Further, in experiment [2], the EC50 is 0.2 to 1 µM.

As for `Cn1cnnc1-c1cc(F)ccc1-c1cccc(-c2nc3cc(CNCCF)cc(C(F)(F)F)c3o2)c1` [FD-2, 2-fluoro-N-((2-(4′-fluoro-2′-(4-methyl-4H-1,2,4-triazol-3-yl)-[1,1′-biphenyl]-3-yl)-7-(trifluoromethyl)benzo[d]oxazol-5-yl)methyl)ethan-1-amine], the IC50 in experiment [1] and in experiment [3] was below 0.2 µM each time. In addition, in experiment [2], the EC50 lay within 0.2 to 1 µM.

For `Cc1cc(CO)cc2nc(-c3cccc(-c4ccc(F)cc4-c4nncn4C)c3)oc12` [FE-3, (2-(4′-Fluoro-2′-(4-methyl-4H-1,2,4-triazol-3-yl)-[1,1′-biphenyl]-3-yl)-7-methylbenzo[d]oxazol-5-yl)methanol], the IC50 in experiment [1] and in experiment [3] was 1 to 10 µM throughout. Further, the EC50 in experiment [2] was 10 to 50 µM.

As for `Cn1cnnc1-c1cc(F)ccc1-c1cccc(-c2nc3cc(CO)cc(C(C)(F)F)c3o2)c1` [FF-6, (7-(1,1-Difluoroethyl)-2-(4′-fluoro-2′-(4-methyl-4H-1,2,4-triazol-3-yl)-[1,1′-biphenyl]-3-yl)benzo[d]oxazol-5-yl)methanol], the IC50 in experiment [1] was below 0.2 µM; in experiment [3], 0.2 to 1 µM. In experiment [2], the EC50 fell in the range of 1 to 10 µM.
